Data taken from patent publication US7683061B2, “Triazine dimers for the treatment of autoimmune diseases” (ProMetic BioSciences Inc., priority 2003, dated 2010).
Read-outs that look alike come from different tables or passages of the source.

Columns and labels:
[1] = system: TNFα production, J774A-1 cells; test: LPS-induced TNFα production in J774A-1 cells (ELISA); format: cell-based; conditions: Mus musculus, J774.A1, 24 h, read-out: IC50 (μM), inhibition of TNFα released by LPS induction
Protocol: Effect of compounds on TNFα production was measured by ELISA using J774-1 cells stimulated by LPS. J774-1 cells were cultured in the presence or absence of LPS and compound. Cells were cultured at 37° C. for 24 h and thereafter the supernatants were collected for the determination of the concentration of TNFα by ELISA as recommended by the manufacturer (BD Biosciences). Data was analyzed in Microsoft Excel and the concentration of compound which inhibits 50% of TNFα production (IC50) was calculated using Prism software.

[2] = molecular target: T1, Fc portion of human IgG (binding of protein A to human IgG); test: Competitive protein A binding ELISA; conditions: Table 1
T1 construct: fused on or other part: Horseradish peroxidase chemically conjugated to the IgG (HRP-IgG)
Protocol: As described above, this assay evaluates the ability of the exemplified compounds to mimic protein A. Such compounds can bind to the Fc portion of human IgG as ascertained by the inhibition of binding of protein A to human IgG. The competitive protein A binding ELISA assay was performed on a 96-well plate Maxisorp surface to enhance the binding of protein A to the bottom of the plate. The wells were coated with 100 μL of protein A (0.8 μg) and incubated overnight at 4° C. After incubation, unbound protein A was removed by three washes with phosphate buffer saline (PBS). The plate was then incubated with 100 μL/well of a 2% solution of bovine serum albumin (BSA) for 1 h at 37° C. to block non specific protein binding. After incubation, the plate was washed to times with PBS. 50 μL of compound or protein A, diluted in PBS or PBS-20% DMSO at appropriate concentration, were added to the wells followed by addition of 50 μL of peroxidase-conjugated human IgG (HRP-IgG). After 1 h incubation at 37° C., the plate was washed free times with PBS to remove unbound HRP-IgG. Bound HRP-IgG was detected by incubation with 100 μL of 2,2′-Azino-di[3-ethylbenzothiazoline sulfonate]diammonium salt crystals (ABTS) solution for 20 min in the dark at room temperature. The plate was then read at 405 nm on a EL 800, universal Microplate reader (Bio-Tek). Data was analyzed in Microsoft Excel and the concentration of compound which inhibits 50% binding of protein A (IC50) was calculated using Prism software.
Table 1 represents the IC50 of compounds tested in the competitive protein A binding ELISA assay, which consists of a side-by-side analysis in PBS and PBS-20% DMSO. DMSO was used to increase the solubility of some of the compounds.

[3] = system: TNFα-induced apoptosis, WEHI-13VAR cells; test: TNFα induced apoptosis in WEHI-13VAR cells (MTT); format: cell-based, murine; conditions: Mus musculus
Protocol: Effect of compounds on TNFα-induced apoptosis was measured by a standard biological assay using WEHI-13VAR cells. These cells undergo apoptosis when they are incubated in the presence of TNFα and actinomycin D. 2×10^4 WEHI-13VAR cells were incubated in RPMI supplemented with 1% sodium pyruvate and 10% FBS, overnight at 37° C. for cell adherence. The cells were then cultured in the presence of 1 μg/mL of actinomycin D (to inhibit protein synthesis) and 0.04 nM TNFα with or without compounds at 37° C. After 16-24 h, 50 μL of a solution of 2 mg/mL of MTT was added to each well and the plate was then incubated for 4 h at 37° C. Only viable cells metabolize MTT to form formazan salt, which is detectable by the measurement of absorbance at 570 nm. After the incubation, the plate was inverted to remove medium and dead cells. 150 μL DMSO was added to each well to stop the reaction and solubilize the formazan salt. Optical density was read on a EL 800, universal Microplate reader (Bio-Tek). A decrease in the optical density is direct evidence of cell apoptosis induced by TNFα. Compounds were also compared to the activity of an anti-TNFα neutralizing antibody.

[4] = molecular target: T2, TNFα / p55 TNFα receptor (CD120a) (Homo sapiens, UniProt P01375); test: Binding ELISA: sTNF-R1 binding to plastic coated TNF-α
T2 sequence (P01375 77-233 limits assumed): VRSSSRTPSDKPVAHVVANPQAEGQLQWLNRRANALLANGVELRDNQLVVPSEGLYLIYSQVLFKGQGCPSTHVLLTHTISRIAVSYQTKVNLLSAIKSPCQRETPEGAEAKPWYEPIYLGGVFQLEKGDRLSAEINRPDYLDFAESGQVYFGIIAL
Protocol: (§1) Compounds were tested for their ability to bind to TNFα or inhibit the interaction of TNFα with its respective receptors; p55 and p75 TNFα receptor. Three binding ELISA assays were undertaken as described by Mancini et al. Biochemical Pharmacology 58, 851-859 (1999). TNFα or receptor (1 μg/mL) was coated on a 96-well plate Maxisorp, overnight at 4° C. After incubation, unbound TNFα or p55 TNFα receptor or p75 TNFα receptor was removed and the plate washed three times with PBS. The plate was then incubated with 100 μL/well of a 2% BSA solution for 1 h at 37° C. to block non specific protein binding. After incubation, the plate was washed three times with PBS. Biotinylated recombinant human TNFα p55 or p75 receptor or biotinylated recombinant human TNFα was added to the wells in the presence or absence of compounds. The plate was incubated for 1 h at 37° C. After incubation, the plate was washed three times with PBS to remove unbound labeled p55 or p75 receptor or recombinant human TNFα. 100 μL of avidin-HRP (diluted 1/2000 in PBS-0.1% BSA) was added to each well and incubated 1 h at 37° C. Bound p55 or p75 receptor or recombinant human TNFα was detected by the addition of 200 μL of 3,3′,5,5′-tetramethylbenzidine (TMB) per well for 15 min. The plate was then read at 655 nm on a EL 800 universal Microplate reader (Bio-Tek, Mississauga, Canada). Data was analyzed in Microsoft Excel and recorded as the percentage of inhibition of p55 or p75 binding to TNFα or TNFα binding to RI (p55) or RII (p75).

[5] = molecular target: T2, TNFα / p55 TNFα receptor (CD120a); test: Binding ELISA: TNF-α binding to plastic coated TNF-R1
Protocol: as §1

[6] = molecular target: T3, TNFα / p75 TNFα receptor (CD120b) (Homo sapiens, UniProt P01375); test: Binding ELISA: TNF-α binding to plastic coated TNF-R2
T3 sequence (P01375 77-233 limits assumed): as above
Protocol: as §1

[7] = molecular target: T3, TNFα / p75 TNFα receptor (CD120b); test: Binding ELISA: sTNF-R2 binding to plastic coated TNF-α
Protocol: as §1

[8] = PBS-20% DMSO, read-out: IC50 (μM): Assay in PBS-20% DMSO
[9] = PBS, read-out: IC50 (μM): Assay in PBS

IC50 [1] [µM] | IC50 [2, 8] [µM] | IC50 [2, 9] [µM] | Structure (SMILES) | other results
57.1 | 12 | 53 | Nc1ccc(CCNc2nc(Nc3ccccc3)nc(Nc3ccc(CCNc4nc(NCCO)nc(Nc5ccccc5)n4)cc3)n2)cc1 [Compound 17] | 
10.2 | 43 | 26 | Oc1ccc(CCNc2nc(NCCc3ccc(Nc4nc(Nc5ccccc5)nc(N5CCNCC5)n4)cc3)nc(Nc3ccccc3)n2)cc1 [Compound 18] | 
15.9 |  |  | Oc1ccc(CCNc2nc(NCCCNc3nc(NCCc4ccc(O)cc4)nc(Nc4ccccc4)n3)nc(Nc3ccccc3)n2)cc1 [Compound 25] | inhibition at 10 µM ([3]; 1 × 10^−5M): 22.8%; inhibition at 20 µM ([3]; 2 × 10^−5M): -0.7%; inhibition at 40 µM ([3]; 4 × 10^−5M): -17.8%; inhibition at 5 µM ([3]; 5 × 10^−6M): 27.5%; inhibition at 100 µM ([4]; 10^−4 M): 5.65%; inhibition at 10 µM ([4]; 10^−5 M): 6.74%; inhibition at 100 µM ([5]; 10^−4 M): 22.9%; inhibition at 10 µM ([5]; 10^−5 M): 3.95%; inhibition at 100 µM ([6]; 10^−4 M): 49.2%; inhibition at 10 µM ([6]; 10^−5 M): 4.8%; inhibition at 100 µM ([7]; 10^−4 M): 4.22%; inhibition at 10 µM ([7]; 10^−5 M): 6.76%
28.8 | 35 |  | Oc1ccc(CCNc2nc(Nc3ccccc3)nc(Nc3ccc(Nc4nc(NCCc5ccc(O)cc5)nc(Nc5ccccc5)n4)cc3)n2)cc1 [Compound 28] | 
20.6 | 18 | 18 | Nc1ccc(CCNc2nc(Nc3ccccc3)nc(N3CCN(c4nc(NCCO)nc(Nc5ccccc5)n4)CC3)n2)cc1 [Compound 33] | 
